Data taken from ChEMBL document CHEMBL1201862, “PubChem BioAssay data set” (2004).
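Exposure lasted 48 hours, with cells grown in 96-well plates and compounds tested at five concentrations. Abbreviation: GI50, concentration required for 50% inhibition of growth.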 Active and inactive are the calls of the source. Rule as the data show it: active = GI50 up to about 1.1 µM and inactive = higher.

How the values were obtained:
Assay in all cases: NCI anticancer screen, dose series, 48 h
SK-MEL-5 = test system: SK-MEL-5
UACC-62 = test system: UACC-62
U-251 = test system: U-251
RXF 393 = test system: RXF 393
NCI-H226 = test system: NCI-H226
OVCAR-8 = test system: OVCAR-8
NCI/ADR-RES = test system: NCI/ADR-RES
OVCAR-5 = test system: OVCAR-5
SNB-19 = test system: SNB-19
T47D = test system: T47D
SK-MEL-2 = test system: SK-MEL-2
HCT-15 = test system: HCT-15
UO-31 = test system: UO-31
SR = test system: SR
MDA-MB-231 = test system: MDA-MB-231
LOX IMVI = test system: LOX IMVI
HOP-92 = test system: HOP-92
CCRF-CEM = test system: CCRF-CEM
HL-60 = test system: HL-60
Hs-578T = test system: Hs-578T

| SMILES | GI50 (SK-MEL-5) | GI50 (UACC-62) | GI50 (U-251) | GI50 (RXF 393) | GI50 (NCI-H226) | GI50 (OVCAR-8) | GI50 (NCI/ADR-RES) | GI50 (OVCAR-5) | GI50 (SNB-19) | GI50 (T47D) | GI50 (SK-MEL-2) | GI50 (HCT-15) | GI50 (UO-31) | GI50 (SR) | GI50 (MDA-MB-231) | GI50 (LOX IMVI) | GI50 (HOP-92) | GI50 (CCRF-CEM) | GI50 (HL-60) | GI50 (Hs-578T) |
| --- | --- | --- | --- | --- | --- | --- | --- | --- | --- | --- | --- | --- | --- | --- | --- | --- | --- | --- | --- | --- |
| C[C@@H]1CC[C@@H]2[C@@H](C1)O[C@@H]([C@H](C)OCc1ccccc1)SC2(C)C | 18.1 µM (inactive) | 36.4 µM (inactive) | 17.9 µM (inactive) | 17.6 µM (inactive) | 18.4 µM (inactive) | 31.5 µM (inactive) | 25.5 µM (inactive) | 16.3 µM (inactive) | 21.3 µM (inactive) | 15.7 µM (inactive) | 17.5 µM (inactive) | 27.8 µM | 14.5 µM (inactive) | 18.2 µM (inactive) | 19.7 µM (inactive) | 18.4 µM (inactive) | – | – | – | – |
| O=C1NC(NNc2ccccc2)=N/C1=C\c1ccco1 | 25.5 µM (inactive) | 4.29 µM (inactive) | 17.7 µM (inactive) | 13.4 µM (inactive) | – | 17.6 µM (inactive) | 26.2 µM (inactive) | 37.7 µM (inactive) | 43.5 µM (inactive) | 14 µM (inactive) | 12.9 µM (inactive) | 16 µM | 27.8 µM (inactive) | – | 20 µM (inactive) | – | 14.8 µM (inactive) | 4.61 µM (inactive) | 20.3 µM (inactive) | 26.2 µM (inactive) |
| CCCCNC(=S)N/N=C/c1cccc(C)n1 | 43 µM (inactive) | 25.6 µM (inactive) | 44.2 µM (inactive) | – | 27.8 µM (inactive) | 33.5 µM (inactive) | 29 µM (inactive) | 43.2 µM (inactive) | 39.3 µM (inactive) | 26 µM (inactive) | – | 47.6 µM | 29 µM (inactive) | 19.5 µM (inactive) | 35.7 µM (inactive) | 34.9 µM (inactive) | 24.2 µM (inactive) | 6.9 µM (inactive) | 23.2 µM (inactive) | > 100 µM (inactive) |
| Cn1c(=O)c2c(nc3n(CC(O)CCl)c(=O)ccn23)n(C)c1=O (stereo not drawn) | 62.5 µM (inactive) | 36.5 µM (inactive) | 44 µM (inactive) | > 100 µM (inactive) | 22.6 µM (inactive) | 18.7 µM (inactive) | 19.3 µM (inactive) | > 100 µM (inactive) | 60 µM (inactive) | 35.7 µM (inactive) | > 100 µM (inactive) | 34.9 µM | 37.5 µM (inactive) | – | 31.3 µM (inactive) | 29.1 µM (inactive) | 45.9 µM (inactive) | 5.19 µM (inactive) | 15.5 µM (inactive) | 41.4 µM (inactive) |
| C[C@]12CC[C@H](O)CC1=CC[C@@H]1C2CC[C@]2(C)c3n[nH]nc3CC12 (stereo partly drawn) | > 100 µM (inactive) | 96.6 µM (inactive) | > 100 µM (inactive) | > 100 µM (inactive) | > 100 µM (inactive) | > 100 µM (inactive) | – | > 100 µM (inactive) | > 100 µM (inactive) | > 100 µM (inactive) | – | – | > 100 µM (inactive) | 25.9 µM (inactive) | > 100 µM (inactive) | – | > 100 µM (inactive) | > 100 µM (inactive) | 44.4 µM (inactive) | 38.6 µM (inactive) |
| CCOc1ccc2nc(NC(=O)C(=O)C(c3cnc4ccccc4n3)[N+](=O)[O-])sc2c1 (stereo not drawn) | > 100 µM (inactive) | > 100 µM (inactive) | – | > 100 µM (inactive) | > 100 µM (inactive) | 53.5 µM (inactive) | > 100 µM (inactive) | > 100 µM (inactive) | 69.2 µM (inactive) | > 100 µM (inactive) | > 100 µM (inactive) | > 100 µM | 77.3 µM (inactive) | – | > 100 µM (inactive) | 61 µM (inactive) | > 100 µM (inactive) | 44.8 µM (inactive) | 56.2 µM (inactive) | > 100 µM (inactive) |
| COC(=O)c1cc(O)c(O)c(O)c1-c1c(O)c(O)c(O)c(SC[C@H](NC(=O)OCc2ccccc2)C(=O)OCc2ccccc2)c1C(=O)OC | – | 22.3 µM (inactive) | 16.4 µM (inactive) | 20.2 µM (inactive) | 21.2 µM (inactive) | 21.2 µM (inactive) | 35 µM (inactive) | 33.9 µM (inactive) | 30.8 µM (inactive) | 32.4 µM (inactive) | 19.9 µM (inactive) | 27.5 µM | – | – | 16.7 µM (inactive) | 17.9 µM (inactive) | 26.2 µM (inactive) | 16.3 µM (inactive) | 15.1 µM (inactive) | 29.6 µM (inactive) |
| O=C(CSc1nnc(SCC(=O)NN=C2CCCCC2)s1)NN=C1CCCCC1 | > 100 µM (inactive) | > 100 µM (inactive) | > 100 µM (inactive) | > 100 µM (inactive) | > 100 µM (inactive) | > 100 µM (inactive) | > 100 µM (inactive) | > 100 µM (inactive) | > 100 µM (inactive) | > 100 µM (inactive) | – | > 100 µM | > 100 µM (inactive) | > 100 µM (inactive) | > 100 µM (inactive) | > 100 µM (inactive) | > 100 µM (inactive) | > 100 µM (inactive) | – | – |
